From patent EP1007066B1, “SCREENING METHODS FOR GLUCOCORTICOID RECEPTOR BINDING SUBSTANCES USING TRYPTERYGIUM WILFORDII PREPARATIONS” (priority 1996, dated 1998)
≈ marks a conversion by molar mass, not a printed value.

How the values were obtained:
PHA-stimulated T cells [1] = assay: Viability of PHA-stimulated T cells (924); format: cell-based
Experimental: A 924 fraction concentration of 1,000 ng/ml was only slightly more toxic to cell viability as compared to the 0 ng/ml dose (see FIG. 20D, 0 ng/ml = 22% of control; 1,000 ng/ml fraction 924 = […] of control cell viability).

IL-2 = assay: PHA-induced IL-2 production (wilforonide, CTLL-2 readout); format: cell-based; conditions: PHA 1 µg/ml, overnight
Experimental: The effects of wilforonide on IL-2 production was also examined. T cells were cultured with or without PHA(1 microgram/ml) in the presence or absence of 0 (control), 10 ng/ml, 50 ng/ml, 100 ng/ml or 200 ng/ml wilforonide overnight. Cell-free supernatants were diluted 1 to 80 and the IL-2 content assayed with CTLL-2 cells.

PHA-stimulated T cells [2] = assay: PHA-induced T cell proliferation (924 / wilforonide); format: cell-based; conditions: PHA 0.5 µg/ml, 3 days
Text: The molecular groups responsible for the immune suppressive function of these compounds are unknown, however, the core structure of diterpenoids which may be related to their activity consists of an α-β-unsaturated 5 element lactone which can be identified by Kedde reagents. HPLC was used to fractionate the ethyl acetate extract of TwHF and the Kedde reagents were employed to trace the fractions. Then, the effect of selected fractions on the in vitro IL-2 production and [^3H]-thymidine incorporation by PHA-activated T cells was determined. Fractions that inhibit these T cell functions were selected and the chromatographic pattern was identified with HPLC. One fraction was further purified with HPLC and crystallized repeatedly; a pure, crystallized compound was obtained and designated "924".
[^3H]-thymidine was added for the last 14 hours of culture. Each concentration was run in quadruplicate (4 times) and the results for each concentration averaged to provide a mean. The mean cpm x 10^3 values were combined and expressed as a percent of T cell inhibition.

IL-2R = IL-2R expression by PHA-activated T cells (924); format: cell-based; conditions: 500 ng/ml
Text: There was no effect of "924" on IL-2R expression by PHA-activated T cells.

Solubility of 924 = format: physicochemical; conditions: ethanol and chloroform
Experimental: The dried woody skinned part of the root of TwHF was extracted with ethanol. The solution was concentrated at reduced pressure, and the residue was dissolved in ethyl acetate. This solution was passed through Al2O3 with ethanol as an eluent. The eluate was evaporated and the residue chromatographed on silica gel with chloroform, chloroform-ether and ethyl acetate as successive eluent. The fractions eluted with chloroform-ether were purified on a preparative HPLC column packed with Nova-Pak C18 and equipped with a 214 detector. Methanol-water was the mobile phase. A fraction having positive reaction to Kedde reagent was collected and extracted with chloroform. The chloroform solution was evaporated to dryness and the residue crystallized in dichloromethane-hexane to yield 924.

T cells = assay: Antigen (SK)-induced T cell proliferation (wilforonide); format: cell-based
Experimental: T cells were cultured with or without SK (1 ng/ml) or SK + IL-2 (50 u/ml) or SK + PMA (0.2 ng/ml) in the presence or absence of the following concentrations of wilforonide: 10 ng/ml, 50 ng/ml, 100 ng/ml, 500 ng/ml or 1,000 ng/ml. The cells were allowed to culture for five days. The cultures were pulsed with [^3H]-thymidine for the last 24 hours of culture. […] ID50 were calculated based on the regression formula by using the fx-3600 calculator. T cells cultured with SK or SK + IL-2 or SK + PMA gave cpm of 1.87 x 10^3, 4.99 x 10^3 and 6.67 x 10^3, respectively.

IDH4 cells = assay: Dexamethasone dependent growth of IDH4 cells (3H-thymidine); format: cell-based, human; conditions: for [3H]-thymidine incorporation of IDH4 cells: without stimulation 16,391; for dexamethasone dependent growth of IDH4 cells: 72 hours
Experimental: IDH4 cells, that express endogenous glucocorticoid receptors, were produced by transfecting human fibroblasts with a plasmid containing the MMTV-long terminal repeat driving the SV40 large T antigen. Since extended growth of these cells is dependent on expression of the large T antigen, these cells require exogenous glucocorticoid to maintain proliferation.
[^3H]-Thymidine was present for the last 16 h. Data represent the mean % inhibition of [^3H]-thymidine incorporation of three replicate determinations of three separate experiments.

human GR = target: T1, human GR (Homo sapiens, UniProt P04150); assay: GR mediated gene activation, MMTV-luciferase in COS-7 cells, with dexamethasone; format: cell-based; conditions: for GR-mediated activation of target gene (MMTV-luciferase): dexamethasone-induced
T1 construct: host or cells: COS-7
T1 sequence (P04150 1-777): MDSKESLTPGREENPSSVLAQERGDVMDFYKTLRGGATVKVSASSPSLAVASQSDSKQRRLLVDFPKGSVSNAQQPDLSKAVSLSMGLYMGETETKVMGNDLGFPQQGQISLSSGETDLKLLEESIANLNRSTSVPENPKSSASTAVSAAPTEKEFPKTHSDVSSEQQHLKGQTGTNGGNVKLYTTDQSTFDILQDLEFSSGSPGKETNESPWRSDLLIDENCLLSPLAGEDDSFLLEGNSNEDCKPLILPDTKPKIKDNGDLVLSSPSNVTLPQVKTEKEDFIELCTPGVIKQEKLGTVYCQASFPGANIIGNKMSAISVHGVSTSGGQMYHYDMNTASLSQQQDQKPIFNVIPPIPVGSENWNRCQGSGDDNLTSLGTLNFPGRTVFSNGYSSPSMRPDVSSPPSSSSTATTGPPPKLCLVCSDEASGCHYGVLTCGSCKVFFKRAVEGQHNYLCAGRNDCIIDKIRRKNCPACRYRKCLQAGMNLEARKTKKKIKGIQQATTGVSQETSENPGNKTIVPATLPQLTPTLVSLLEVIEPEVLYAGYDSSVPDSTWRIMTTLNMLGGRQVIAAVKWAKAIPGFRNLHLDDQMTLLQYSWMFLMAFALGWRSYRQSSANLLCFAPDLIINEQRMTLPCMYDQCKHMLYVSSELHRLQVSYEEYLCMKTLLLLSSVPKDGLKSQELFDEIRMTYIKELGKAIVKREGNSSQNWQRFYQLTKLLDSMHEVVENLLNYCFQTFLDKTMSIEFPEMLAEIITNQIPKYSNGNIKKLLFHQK
Experimental: Cell transfections and assays of GR mediated gene activation. COS-7 cells were maintained in culture in DMEM-10% bovine calf serum. […] Cells were plated at 10^6 cells per 10 cm plate. Twenty-four hours later, the cells were transfected with 500 ng pRShGrα, a GR expression vector (obtained from the Salk Institute, La Jolla, CA) and 10 µg of pMMTV-luciferase, a synthetic reporter gene. However, other expression vectors and synthetic reporter genes available to those of skill in the art may be used for transfection. The vector pMMTV-luciferase contains the luciferase gene under regulatory control of glucocorticoid-inducible elements in the MMTV-long terminal repeat. Cells were transfected using the calcium-phosphate precipitation technique (mammalian transfection kit, Stratagene, La Jolla, CA). […] Twenty-four hours later, the cells were washed, harvested, and lysates prepared by three cycles of freeze/thawing. The lysates were cleared by centrifugation at 12,000 x g for 5 minutes; aliquots were assayed for protein content and equal amounts of proteins were used for luciferase assays.
COS-7 cells were transfected with a human GR expression vector and the MMTV-luciferase reporter gene construct. A parallel set of plates was transfected with the constitutively active RSV-luciferase construct. […] Cells were lysed after 24 hours and assayed for luciferase activity.

cyclooxygenase 2 (COX-2) = assay: LPS (endotoxin) induced PGE2 production by monocytes; format: cell-based, human; conditions: LPS 10 µg/ml, 18 hours
Experimental: After 18 hours of incubation, cell-free supernatants were collected and assayed for PGE2 content with a radioimmunoassay kit (Amersham), as described by the manufacturer. […] Human monocytes produce prostaglandinE2 (PGE2) when stimulated with bacterial endotoxin.

U937 cells = assay: PGE2 production by LPS-activated U937 cells; format: cell-based, human
Text: This reflected marked suppression of the induction ofmRNA for cycloxygenase -2 (COX-2). […] This may contribute to its capacity to suppress autoimmune and inflammatory diseases.

in vitro = format: cell-based
Experimental: The cells were assayed for cell viability by using a cytoflowmeter (FACSCAN) after the cells were stained with propidium iodine. […]

For `C[C@]12CCC3=C(COC3=O)[C@@H]1CCC(=O)C2` (relative stereo) [wilforonide, naphtho-[1,2-c] furan-3,7(1H,5H)-dione, 4,5a,6,8,9,9a-hexahydro-5a-methyl-(5aR-trans)-], the “viability of PHA-stimulated T cells” value (PHA-stimulated T cells [1]; 1 ng/ml up to 1000 ng/ml) was “did not affect”, the cell viability (PHA-stimulated T cells [1]; 1,000 ng/ml) was 35 % of control and the “ID50, PHA-induced IL-2 production” value (IL-2) was 0.04211 µg/mL (≈ 0.191 µM). For the same compound, the “ID50, PHA-induced T cell proliferation” value (PHA-stimulated T cells [2]) was 0.3913 µg/mL (≈ 1.78 µM), the “cpm x 10^3 (experiments 1.-4.)” value (PHA-stimulated T cells [2]; Wilforonide 50 ng/ml) was 57.0 cpm x 10^3 and the “IL-2R expression by PHA-activated T cells” value (IL-2R) was “did not affect”. For the same compound, the solubility (Solubility of 924) was “soluble”, the “ID50, antigen-induced T cell proliferation” value (T cells; SK) was 0.12712 µg/mL (≈ 0.577 µM) and the “ID50, antigen-induced T cell proliferation” value (T cells; SK+IL-2) was 0.476 µg/mL (≈ 2.16 µM). The “ID50, antigen-induced T cell proliferation” value (T cells; SK+PMA) was 0.613 µg/mL (≈ 2.78 µM).

For `C[C@@H]1C[C@H]2[C@@H]3CCC4=CC(=O)C=C[C@]4(C)[C@@]3(F)[C@@H](O)C[C@]2(C)[C@@]1(O)C(=O)CO` [dexamethasone], the “[3H]-thymidine incorporation of IDH4 cells” value (“[3H]-thymidine incorporation” below) (IDH4 cells; dexamethasone 1 nM) was 35,554 cpm, the “[3H]-thymidine incorporation” value (IDH4 cells; dexamethasone 10 nM) was 52,937 cpm and the “[3H]-thymidine incorporation” value (IDH4 cells; dexamethasone 100 nM) was 105,357 cpm. The “[3H]-thymidine incorporation” value (IDH4 cells; dexamethasone 1,000 nM) was 96,677 cpm.

With `CC(C)[C@]12O[C@H]1[C@@H]1O[C@]13[C@]1(O[C@H]1C[C@H]1C4=C(C(=O)OC4)[C@@H](O)C[C@@]13C)[C@@H]2O` [tripdiolide] the “dexamethasone dependent growth of IDH4 cells” value (IDH4 cells) was “inhibited”, the “GR-mediated activation of target gene (MMTV-luciferase)” value (“GR-mediated activation of target gene” for short) (human GR) was “inhibited” and the “LPS / endotoxin induced PGE2 production by monocytes” value (cyclooxygenase 2 (COX-2)) was “inhibited”. The “PGE2 production by LPS-activated U937 cells that do not express COX-2” value (U937 cells) was “had effect”.

In the case of `CC(C)[C@]12O[C@H]1[C@@H]1O[C@]13[C@]1(O[C@H]1C[C@H]1C4=C(CC[C@@]13C)C(=O)OC4)[C@@H]2O` [triptolide], the “more potent at inhibition of MMTV-luciferase induction than at binding inhibition” value (human GR; compared with GR ligand binding inhibition) is reported as “more than an order of magnitude”, the “GR-mediated activation of target gene” value (human GR) is reported as “inhibited” and the viability at 72 hr, 0.1 ng/ml (in vitro) is reported as 91.7%. It also gave a viability at 72 hr, 10 ng/ml (in vitro) of 35.8%.

In the case of `CC(C)c1ccc2c(c1O)CC[C@H]1C3=C(CC[C@]21C)C(=O)OC3` [triptophenolide], the “dexamethasone dependent growth of IDH4 cells” value (IDH4 cells) is reported as “less active” and the “GR-mediated activation of target gene” value (human GR) is reported as “far less potent”.
